What was measured:
Experiment in all cases: relative viability (nuclei count vs DMSO), 5 days (fraction); higher = more cells survive
OSI-027 + Dasatinib = compound: COc1cccc2cc(-c3nc([C@H]4CC[C@H](C(=O)O)CC4)n4ncnc(N)c34)[nH]c12 [OSI-027] + Cc1nc(Nc2ncc(C(=O)Nc3c(C)cccc3Cl)s2)cc(N2CCN(CCO)CC2)n1 [Dasatinib] (partner 0.075 µM)
How it was run: (§1)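 Medians of duplicate plates are given as relative viability. That measure is the nuclei count in treated wells divided by the count in vehicle wells. Counts were taken on 4× images of lung cancer cell lines in 1536-well plates, 5 days after pin-tool dosing the day after seeding with one drug alone or a fixed anchor-drug dose plus five library-drug doses (not always all listed) in √10 steps.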

Alpelisib + Lapatinib = compound: Cc1nc(NC(=O)N2CCC[C@H]2C(N)=O)sc1-c1ccnc(C(C)(C)C(F)(F)F)c1 [Alpelisib] + CS(=O)(=O)CCNCc1ccc(-c2ccc3ncnc(Nc4ccc(OCc5cccc(F)c5)c(Cl)c4)c3c2)o1 [Lapatinib] (partner 2 µM)
How it was run: as §1

Alpelisib + Crizotinib = compound: Cc1nc(NC(=O)N2CCC[C@H]2C(N)=O)sc1-c1ccnc(C(C)(C)C(F)(F)F)c1 [Alpelisib] + C[C@@H](Oc1cc(-c2cnn(C3CCNCC3)c2)cnc1N)c1c(Cl)ccc(F)c1Cl [Crizotinib] (partner 1 µM)
How it was run: as §1

Alpelisib + Olaparib = compound: Cc1nc(NC(=O)N2CCC[C@H]2C(N)=O)sc1-c1ccnc(C(C)(C)C(F)(F)F)c1 [Alpelisib] + O=C(c1cc(Cc2n[nH]c(=O)c3ccccc23)ccc1F)N1CCN(C(=O)C2CC2)CC1 [Olaparib] (partner 8 µM)
How it was run: as §1

Cell Line | relative viability (OSI-027 + Dasatinib; first compound 0.01 µM) | relative viability (OSI-027 + Dasatinib; first compound 0.03162 µM) | relative viability (OSI-027 + Dasatinib; first compound 0.1 µM) | relative viability (OSI-027 + Dasatinib; first compound 0.3162 µM) | relative viability (OSI-027 + Dasatinib; first compound 1 µM) | relative viability (Alpelisib + Lapatinib; first compound 0.04 µM) | relative viability (Alpelisib + Lapatinib; first compound 0.1265 µM) | relative viability (Alpelisib + Lapatinib; first compound 0.4 µM) | relative viability (Alpelisib + Lapatinib; first compound 1.265 µM) | relative viability (Alpelisib + Lapatinib; first compound 4 µM) | relative viability (Alpelisib + Crizotinib; first compound 0.04 µM) | relative viability (Alpelisib + Crizotinib; first compound 0.1265 µM) | relative viability (Alpelisib + Crizotinib; first compound 0.4 µM) | relative viability (Alpelisib + Crizotinib; first compound 1.265 µM) | relative viability (Alpelisib + Crizotinib; first compound 4 µM) | relative viability (Alpelisib + Olaparib; first compound 0.04 µM) | relative viability (Alpelisib + Olaparib; first compound 0.1265 µM) | relative viability (Alpelisib + Olaparib; first compound 0.4 µM) | relative viability (Alpelisib + Olaparib; first compound 1.265 µM) | relative viability (Alpelisib + Olaparib; first compound 4 µM)
LOU-NH91 | 0.533 | 0.542 | 0.471 | 0.407 | 0.392 | 0.767 | 0.597 | 0.632 | 0.511 | 0.522 | 0.743 | 0.702 | 0.758 | 0.627 | 0.59 | 0.915 | 0.87 | 0.844 | 0.65 | 0.777
LU99A | 0.519 | 0.513 | 0.486 | 0.293 | 0.259 | 0.873 | 0.917 | 1.02 | 0.666 | 0.56 | 0.544 | 0.471 | 0.509 | 0.385 | 0.313 | 0.245 | 0.282 | 0.268 | 0.287 | 0.232
LXF-289 | 0.175 | 0.216 | 0.198 | 0.182 | 0.102 | 0.865 | 0.921 | 0.958 | 0.832 | 0.956 | 0.798 | 0.792 | 0.875 | 0.84 | 0.778 | 1.04 | 1.04 | 1.12 | 0.997 | 0.942
NCI-H23 | 0.718 | 0.899 | 0.867 | 0.746 | 0.46 | 1.09 | 0.845 | 1.04 | 0.621 | 0.839 | 0.565 | 0.497 | 0.425 | 0.428 | 0.432 | 0.254 | 0.269 | 0.321 | 0.232 | 0.289
NCI-H322M | 0.252 | 0.236 | 0.224 | 0.233 | 0.248 | 0.535 | 0.666 | 0.518 | 0.361 | 0.423 | 0.797 | 0.955 | 0.892 | 0.708 | 0.693 | 0.804 | 0.82 | 0.791 | 0.671 | 0.53
NCI-H358 | 0.154 | 0.183 | 0.158 | 0.127 | 0.132 | 0.442 | 0.382 | 0.389 | 0.297 | 0.368 | 0.785 | 0.534 | 0.725 | 0.473 | 0.354 | 0.665 | 0.578 | 0.544 | 0.403 | 0.332
NCI-H460 | 0.568 | 0.462 | 0.37 | 0.243 | 0.158 | 1.02 | 0.948 | 1.03 | 0.662 | 0.439 | 0.855 | 1.02 | 0.926 | 0.285 | 0.296 | 0.446 | 0.501 | 0.496 | 0.42 | 0.375
NCI-H520 | 0.254 | 0.192 | 0.143 | 0.133 | 0.129 | 0.712 | 0.765 | 0.906 | 0.669 | 0.631 | 0.823 | 0.75 | 0.739 | 0.463 | 0.515 | 0.285 | 0.298 | 0.331 | 0.231 | 0.272
NCI-H596 | 0.588 | 0.55 | 0.606 | 0.562 | 0.564 | 0.98 | 1.02 | 0.825 | 0.54 | 0.413 | 1.06 | 1.01 | 0.841 | 0.616 | 0.406 | 0.705 | 0.701 | 0.778 | 0.491 | 0.438
NCI-H647 | 0.126 | 0.14 | 0.157 | 0.171 | 0.071 | 0.959 | 1.14 | 1.35 | 0.99 | 0.756 | 1.03 | 1.08 | 1.11 | 0.933 | 0.913 | 0.534 | 0.485 | 0.569 | 0.487 | 0.436
NCI-H650 | 0.405 | 0.464 | 0.336 | 0.347 | 0.311 | 0.84 | 0.538 | 0.876 | 0.683 | 0.869 | 0.737 | 0.693 | 0.88 | 0.478 | 0.546 | 0.391 | 0.409 | 0.425 | 0.378 | 0.317
NCI-H661 | 0.664 | 0.989 | 0.708 | 0.602 | 0.383 | 0.471 | 0.475 | 0.525 | 0.383 | 0.361 | 0.968 | 0.96 | 1.07 | 1.01 | 0.937 | 0.734 | 0.773 | 0.878 | 0.732 | 0.749
NCI-H727 | 0.368 | 1.04 | 0.354 | 0.394 | 0.339 | 0.831 | 0.766 | 0.906 | 0.578 | 0.443 | 0.839 | 0.771 | 0.891 | 0.717 | 0.508 | 0.816 | 0.708 | 0.768 | 0.754 | 0.448
NCI-H838 | 0.283 | 0.276 | 0.224 | 0.227 | 0.239 | 0.877 | 1.03 | 1.01 | 0.774 | 0.696 | 0.774 | 0.768 | 0.932 | 0.73 | 0.772 | 0.774 | 0.754 | 0.744 | 0.637 | 0.613
NCI-H1355 | 0.718 | 0.564 | 0.534 | 0.409 | 0.324 | 0.963 | 0.961 | 0.985 | 0.918 | 0.806 | 1.07 | 1.11 | 1.09 | 0.809 | 0.824 | 0.747 | 0.727 | 0.807 | 0.629 | 0.519

From the supplement of paper PMC10307832
